Test results reported in patent US20080021098A1, “Antifungal Compositions” (GIVAUDAN SA, priority 2004, published 2008).

Test system: Cladosporium sphaerospermum IK-65 on cotton fabrics / Cladosporium sphaerospermum MTL on plaster
Assay: Minimal headspace level required for antifungal activity (olfactometer, constant fragrance vapour)
Assay type: cell-based
Settings: test phase of 7 days; for Effect on fungal growth: at the headspace level of the same line; for Headspace level required to inhibit fungal growth: constant vapour concentration
Description: In order to determine the effective level of the anti-mould fragrance compounds needed for anti-mould vapour phase activity, an olfactometer is constructed that allows delivery to the fungal growth substrate of a constant concentration of fragrance vapour. A stream of nitrogen is saturated with the fragrance component, and the fragrance-saturated gas is then diluted with water saturated air at different ratios. This mixture is then blown continuously through enclosed acryl-glass boxes and the headspace is measured by sampling 1 ml gas sample with subsequent analysis in the gas chromatograph. Once a steady state in the acryl-glass box is reached (usually within 1-3 days), a fungal inoculum on a relevant substrate is added to the box, and fungal growth during a test phase of 7 days is evaluated.
The following relevant substrate—inoculum combinations were used: • (a) White pieces of cotton fabrics were soaked with a solution of potato dextrose broth diluted to a final concentration of 5% containing spores from the fungal test strain Cladosporium sphaerospermum IK-65 diluted to a final density corresponding to an optical density at 600 nm of 0.01. The test strain IK 65 was isolated from moist fabrics having fungal off odors, and it is a typical strain growing on fabrics as substrate. • (b) White plaster used for fixing ceramic tiles in bathrooms was spread homogenously on the back of 35 mm Petri dishes. On each Petri dish, 160 μl of a fungal inoculum was evenly spread. It contained potato dextrose broth diluted to a final concentration of 50% and spores from the fungal test strain Cladosporium sphaerospermum MTL diluted to a final density corresponding to an optical density at 600 nm of 0.004. The test strain MTL was isolated from a bathroom with vigorous mould growth on the plaster between tiles.

## COc1ccc(CC(C)C=O)cc1 (stereo not shown) [3-(4-methoxyphenyl)-2-methyl-propanal]
  Effect on fungal growth: complete inhibition
  Headspace level required to inhibit fungal growth: 1.9 µg/L

## CC1(C)CCCC2=C1CC(C=O)CC2 (stereo not shown) [8,8-Dimethyl-1,2,3,4,5,6,7,8-octahydro-naphthalene-2-carbaldehyde]
  Effect on fungal growth: complete inhibition
  Headspace level required to inhibit fungal growth: 4.9 µg/L

## COc1ccc(C=O)cc1 [4-methoxy-benzaldehyde]
  Effect on fungal growth: over 90% inhibition
  Headspace level required to inhibit fungal growth: 7.5 µg/L

## CC1=CCC(C(C)CCO)CC1 (stereo not shown) [3-(4-methyl-3-cyclohexenyl)-butanol]
  Effect on fungal growth: 80% inhibition
  Headspace level required to inhibit fungal growth: 4.5 µg/L

## CC1=CC(C)C(C=O)CC1 (stereo not shown) [1-carboxaldehyde-2,4-dimethyl-cyclohex-3-en]
  Effect on fungal growth: over 90% inhibition
  Headspace level required to inhibit fungal growth: 21 µg/L
